Measurements reported in US20230381271A1, “PROTOCOL TO MINIMIZE CALCINEURIN INHIBITOR NEPHROTOXICITY” (Aurinia Pharmaceuticals Inc., priority 0001, published 2023).
Entries after “also recorded” stand apart in the source; their conditions may differ.

Tests used:
[1] = test system: patients with lupus nephritis; settings: patients treated with voclosporin; cited from earlier work
[2] = test system: subjects with lupus nephritis; test: 24-hour urinary electrolyte excretion concentrations in the lupus nephritis trial; format: in vivo, human; settings: for Potassium urinary excretion concentration, change from baseline, mean ± SEM / Sodium urinary excretion concentration, change from baseline, mean ± SEM: baseline to one year, 24-hour urine
Source text: Twenty-four-hour urine samples from 60 patients in each treatment arm were selected for urinary analysis of electrolytes. […] The mean change from baseline to one year in magnesium, potassium and sodium were presented as 24-hour urinary excretion concentrations.

LN [3] = test: 48 week study of LN treatment: voclosporin plus MMF and oral corticosteroids, with pharmacodynamic (eGFR-guided) dosing; format: in vivo, human; settings: for Patients with CR at 24 weeks / Patients with CR at 48 weeks / Patients with PR at 24 weeks / Patients with PR at 48 weeks: patients with no dose reduction
Experimental: The study was conducted over a period of 48 weeks and safety was evaluated at 24 weeks.
Subjects were assessed after 24 weeks and 48 weeks as well as a subsequent evaluation at 50 weeks.
PR is a composite end-point that includes safety and efficacy: UPCR reduction of 50% from baseline and no use of rescue medication.
To determine the efficacy of the pharmacodynamics protocol wherein dosage is reduced or stopped according to the presence or absence of indicators of the decrease in eGFR experienced as a side effect, these three groups of patients were assessed after 24 weeks and 48 weeks of treatment in consideration of whether treatment was altered according to the invention protocol.
PR is defined as UPCR reduction of 50% from baseline and no use of rescue medication.

[4] = test system: subjects with lupus nephritis; test: Long-term continuation study: eGFR, UPCR, oral steroid dose; format: in vivo, human; settings: for Corrected eGFR, mean / UPCR, mean: N = 116
[5] = test system: subjects with active lupus nephritis; test: Double-blind randomized controlled trial in active lupus nephritis: complete renal response; format: in vivo, human; settings: at one year
[6] = test system: subjects with biopsy-proven active lupus nephritis; test: Pooled Phase 2 and Phase 3 lupus nephritis studies: complete renal response rate; format: in vivo, human; settings: pooled data
Source text: (§1) All patients were concurrently administered mycophenolate mofetil (MMF) (target 1 g BID) and rapidly-tapered, low-dose steroids.

subjects with LN = test: Pooled Phase 2 and Phase 3 lupus nephritis studies: fasting lipid profile; format: in vivo, human
Experimental: as §1
Fasting total cholesterol, low-density lipoprotein cholesterol (LDL), high-density lipoprotein cholesterol (HDL), and triglycerides were measured at baseline and at a one year follow-up in a central, CLIA-certified laboratory.

[7] = test system: subjects with lupus nephritis; test: Long-term continuation study: adverse events; format: in vivo, human
LN [8] = test: Low dosage protocol: clinical studies similar to Example 1, dosage reduced to 15.8 or 7.9 mg BID; format: in vivo, human
mouse kidney = test: MALDI-MSI localization in mouse kidney after IV administration; settings: tail vein injection of parent drug, compared between voclosporin and cyclosporine A species
Experimental: Kidneys were cryosectioned and covered with a matrix for MALDI-MSI analysis. The sample was measured in a raster process in the mass spectrometer, resulting in a spatially resolved mass spectra. The detected molecules were visualized as a color intensity map (m/z 0%-100%). Histological staining of the sample was then performed. Histological staining and the MALDI-MSI measurements of the same sample were co-registered.

[9] = any subgroup, either treatment arm, one year
[10] = High Dose 39.5 mg BID, 24 weeks, n=88
[11] = High Dose 39.5 mg BID, 48 weeks, n=88
[12] = High Dose 39.5 mg BID, patients with dose reductions (pharmacodynamically dosed)
[13] = Low Dose 23.7 mg BID, 48 weeks, n=89
[14] = Low Dose 23.7 mg BID, patients with dose reductions (pharmacodynamically dosed)
[15] = low dosage 23.7 mg BID + MMF + corticosteroids, whole group
[16] = change from baseline to one year

## C=C/C=C/C[C@@H](C)[C@@H](O)[C@H]1C(=O)N[C@@H](CC)C(=O)N(C)CC(=O)N(C)[C@@H](CC(C)C)C(=O)N[C@@H](C(C)C)C(=O)N(C)[C@@H](CC(C)C)C(=O)N[C@@H](C)C(=O)N[C@H](C)C(=O)N(C)[C@@H](CC(C)C)C(=O)N(C)[C@@H](CC(C)C)C(=O)N(C)[C@@H](C(C)C)C(=O)N1C [voclosporin]
[1]
  Mean serum electrolyte concentrations: within normal ranges
[2]; Non-responders, n = 32
  Potassium urinary excretion concentration, change from baseline, mean ± SEM: -2.48 ± 4.806 mmol/L
  Sodium urinary excretion concentration, change from baseline, mean ± SEM: -23.0 ± 12.69 mmol/L
[2]; Responders, n = 28
  Potassium urinary excretion concentration, change from baseline, mean ± SEM: -6.38 ± 24.0 mmol/L
  Sodium urinary excretion concentration, change from baseline, mean ± SEM: -27.6 ± 109 mmol/L
[2]; all subgroups except responders in the control arm, one year
  Decrease from baseline in urinary sodium excretion concentration: < 30.5 mmol/L
[2]; [9]
  Mean changes from baseline in urinary magnesium excretion concentration (magnitude): < 13.4 mg/dL
  Mean changes from baseline in urinary potassium excretion concentration (magnitude): < 6.4 mmol/L
[2]; at the studied dose, regardless of response to treatment
  changes from baseline in urinary electrolyte excretion concentrations of magnesium, potassium, and sodium: not clinically meaningful
[2]; eGFR decrease cohort, n = 28
  Potassium urinary excretion concentration, change from baseline, mean ± SEM: -4.58 ± 4.648 mmol/L
  Sodium urinary excretion concentration, change from baseline, mean ± SEM: -30.5 ± 11.92 mmol/L
LN [3]; [10]
  Patients with Dose Reduction: 47 (53.4) n(%)
  Patients with no Dose Reduction: 41 (46.6) n(%)
LN [3]; [11]
  Patients with Dose Reduction: 53 (60.2) n(%)
  Patients with no Dose Reduction: 35 (39.8) n(%)
LN [3]; [12]
  Patients with CR at 24 weeks, percent: (27.7) %
  Patients with CR at 48 weeks, percent: (45.3) %
  Patients with PR at 24 weeks, number: 34 n
  Patients with PR at 24 weeks, percent: (72.3) %
  Patients with PR at 48 weeks, percent: (77.4) %
LN [3]; High Dose 39.5 mg BID
  Patients with CR at 24 weeks: 11 (26.8) n(%)
  Patients with CR at 48 weeks: 11 (31.4) n(%)
  Patients with PR at 24 weeks: 24 (58.5) n(%)
  Patients with PR at 48 weeks: 22 (62.9) n(%)
LN [3]; Low Dose 23.7 mg BID, 24 weeks, n=89
  Patients with no Dose Reduction: 50 (56.2) n(%)
LN [3]; [13]
  Patients with Dose Reduction: 46 (51.7) n(%)
  Patients with no Dose Reduction: 43 (48.3) n(%)
LN [3]; [14]
  Patients with CR at 24 weeks, percent: (35.9) %
  Patients with CR at 48 weeks, percent: (52.2) %
  Patients with PR at 24 weeks, percent: (71.8) %
  Patients with PR at 48 weeks, number: 35 n
  Patients with PR at 48 weeks, percent: (76.1) %
LN [3]; Low Dose 23.7 mg BID
  Patients with CR at 24 weeks: 15 (30.0) n(%)
  Patients with CR at 48 weeks: 20 (46.5) n(%)
  Patients with PR at 24 weeks: 34 (68.0) n(%)
  Patients with PR at 48 weeks: 26 (60.5) n(%)
LN [3]; [15]
  patients showing CR at 24 weeks: 32.6%
  patients showing PR at 24 weeks: 70%
[4]; Month 12, 23.7 mg twice daily + MMF + low-dose steroids
  Corrected eGFR, mean: 80.7 mL/min/1.73 m^2
[4]; Month 12
  UPCR, mean: 0.86 mg/mg
[4]; all time points during the three years
  mean UPCR versus control: lower
[4]; at 36 months
  increase from baseline eGFR, compared to the active control group: +2.7 mL/min
[4]; over 36 months, 116 subjects
  mean estimated glomerular filtration rate (eGFR) over time: stable over 36 months
[4]; pre-treatment Baseline
  Corrected eGFR, mean: 79.0 mL/min/1.73 m^2
  UPCR, mean: 3.941 mg/mg
[5]; 23.7 mg twice daily + MMF + low-dose steroids
  complete renal response rate: 40.8%
[5]; p<0.0001
  complete renal response, OR vs MMF and low-dose steroids only: 2.65
[6]; one year of treatment, added to MMF and low-dose steroids
  complete renal response rate (CRR): 43.7%
[6]; one year, P<0.0001
  complete renal response, OR vs control: 2.76
Subjects with LN; 23.7 mg BID arm
  HDL cholesterol, Change from Baseline to One Year, mean: -5.9 mg/dL
  LDL cholesterol, Change from Baseline to One Year, mean: -57.4 mg/dL
  Total cholesterol, Change from Baseline to One Year, mean: -82.6 mg/dL
  Triglycerides, Change from Baseline to One Year, mean: -74.1 mg/dL
Subjects with LN; Baseline, 23.7 mg BID arm, normal range 50 to 130
  LDL cholesterol, observed, mean: 174.0 mg/dL
Subjects with LN; Baseline, 23.7 mg BID arm, normal range 50 to 150
  Triglycerides, observed, mean: 239.6 mg/dL
Subjects with LN; Baseline, 23.7 mg BID arm, normal range 100 to 200
  Total cholesterol, observed, mean: 288.8 mg/dL
Subjects with LN; One Year, 23.7 mg BID arm
  LDL cholesterol, observed, mean: 114.3 mg/dL
  Total cholesterol, observed, mean: 196.6 mg/dL
  Triglycerides, observed, mean: 148.4 mg/dL
Subjects with LN; at baseline
  percentage of subjects with normal triglycerides: 32.3%
Subjects with LN; at one year
  percentage of subjects with normal triglycerides: 56.1%
Subjects with LN; baseline to one year
  increase in percentage of patients with total cholesterol in the normal range: about 42%
  increase in percentage with normal LDL: about 42%
Subjects with LN; [16]
  HDL cholesterol, LS Mean Difference Voclosporin vs Control: -0.6 mg/dL
  LDL cholesterol, LS Mean Difference Voclosporin vs Control: -10.3 mg/dL
  Total cholesterol, LS Mean Difference Voclosporin vs Control: -15.1 mg/dL
  Triglycerides, LS Mean Difference Voclosporin vs Control: -15.9 mg/dL
Subjects with LN; within the normal range at baseline, both arms
  Mean HDL levels over the study: remained stable throughout the study
[7]; continuation study
  withdrawals: 12.9%
[7]; continuation study, four deaths in the active control group
  deaths in the treated group: no deaths
[7]; n = 116
  Adverse Event Leading to Voclosporin/Placebo Discontinuation: 10.3%
  Disease-Related Adverse Event: 51.7%
  Treatment-Related Adverse Event: 27.6%
  Treatment-Related Serious Adverse Event: 0.9%
[7]; n = 116, 23.7 mg twice daily + MMF + low-dose steroids
  Any Adverse Event: 88.8%
[7]; up to three years of treatment
  tolerability: well tolerated with no unexpected safety signals observed
LN [8]; dosage lowered to 7.9 mg BID quite early in the treatment
  complete or partial remission at reduced dosage: Substantial numbers of subjects showed complete or partial remission
LN [8]; dosage reduced almost immediately to 15.8 mg BID
  remission at reduced dosage: a substantial portion of subjects showed substantial remission
Mouse kidney
  distribution, accumulation and intensity in the kidney (MALDI-MSI): relatively weak throughout the kidney, particularly in the cortex; also recorded: do not accumulate at high concentrations in the kidney
